Assay results published in ChEMBL document CHEMBL1136672, “Synthesis and pharmacological activity of fluorescent histamine H1 receptor antagonists related to mepyramine” (Bioorg Med Chem Lett, 2003).

Tests used:
Histamine H1 receptor = Histamine H1 receptor (Cavia porcellus, UniProt P31389); assay: Histamine H1 receptor antagonistic activity in guinea pig ileum […]; format: functional, tissue-based; conditions: read-out: pA2 (converted)
[1] = target: Histamine H1 receptor (Homo sapiens) (UniProt P35367); conditions: U-373MG ATCC
Histamine H1 receptor (Homo sapiens), sequence (P35367 whole entry): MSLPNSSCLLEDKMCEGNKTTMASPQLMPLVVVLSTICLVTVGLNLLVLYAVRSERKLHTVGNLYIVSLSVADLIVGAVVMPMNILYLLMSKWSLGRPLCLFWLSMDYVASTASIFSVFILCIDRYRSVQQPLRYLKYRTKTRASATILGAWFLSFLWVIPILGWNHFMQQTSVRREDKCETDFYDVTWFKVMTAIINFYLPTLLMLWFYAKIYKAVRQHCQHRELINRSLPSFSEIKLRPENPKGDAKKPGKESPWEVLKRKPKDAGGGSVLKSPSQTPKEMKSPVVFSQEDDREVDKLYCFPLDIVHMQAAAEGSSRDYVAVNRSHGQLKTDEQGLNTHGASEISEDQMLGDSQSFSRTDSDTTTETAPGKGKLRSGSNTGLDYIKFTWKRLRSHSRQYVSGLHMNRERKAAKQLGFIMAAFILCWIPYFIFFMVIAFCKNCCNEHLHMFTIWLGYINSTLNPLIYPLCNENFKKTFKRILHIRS
Description: Histamine H1 receptor antagonistic activity in U373MG human glioblastoma cells using fluorescence-labeled H1 as radioligand in Ca+2 assay

Histamine H1 receptor, sequence (P31389 whole entry): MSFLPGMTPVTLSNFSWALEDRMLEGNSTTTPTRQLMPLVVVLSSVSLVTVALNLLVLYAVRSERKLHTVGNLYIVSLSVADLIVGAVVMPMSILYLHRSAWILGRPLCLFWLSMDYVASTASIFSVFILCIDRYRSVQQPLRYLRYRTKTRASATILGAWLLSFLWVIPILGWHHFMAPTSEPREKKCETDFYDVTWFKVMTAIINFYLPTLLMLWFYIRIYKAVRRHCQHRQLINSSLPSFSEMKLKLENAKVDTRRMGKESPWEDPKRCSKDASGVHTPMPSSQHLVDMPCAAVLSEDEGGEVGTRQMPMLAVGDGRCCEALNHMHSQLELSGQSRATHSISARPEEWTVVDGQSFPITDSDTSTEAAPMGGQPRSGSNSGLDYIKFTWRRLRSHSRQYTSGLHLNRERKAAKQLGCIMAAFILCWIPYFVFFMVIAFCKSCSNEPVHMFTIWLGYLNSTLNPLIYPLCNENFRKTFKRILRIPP

Row | Kb (Histamine H1 receptor) | pKB [1] | SMILES
1 | 26.3 nM | 7.68 | COc1ccc(CN(CCN(C)CCCCCCNC(=O)c2ccc(-c3c4ccc(=N)cc-4oc4cc(N)ccc34)c(C(=O)O)c2)c2ccccn2)cc1
2 | 4.68 nM |  | COc1ccc(CN(CCN(C)CCNc2ccc([N+](=O)[O-])c3n[o+][n-]c23)c2ccccn2)cc1
3 | 13.2 nM | 7.84 | COc1ccc(CN(CCN(C)CCN)c2ccccn2)cc1
4 | 21.4 nM | 8.17 | COc1ccc(CN(CCN(C)CCCCCCNC(=O)c2ccc(-c3c4ccc(=O)cc-4oc4cc(O)ccc34)c(C(=O)O)c2)c2ccccn2)cc1
5 | 3.39 nM | 8.94 | COc1ccc(CN(CCN(C)CCCCCCCCNC(=O)c2ccc(-c3c4ccc(=O)cc-4oc4cc(O)ccc34)c(C(=O)O)c2)c2ccccn2)cc1
6 | 12.9 nM | 8.03 | COc1ccc(CN(CCN(C)CCCCCCN)c2ccccn2)cc1
7 |  | 8.12 | COc1ccc(CN(CCN(C)CCNc2ccc([N+](=O)[O-])c3nonc23)c2ccccn2)cc1
8 | 5.01 nM | 8.53 | COc1ccc(CN(CCN(C)CCCCCCCCNC(=O)c2ccc(C(=O)O)c(-c3c4ccc(=O)cc-4oc4cc(O)ccc34)c2)c2ccccn2)cc1
9 | 36.3 nM | 7.18 | COc1ccc(CN(CCN(C)CCCCCCNC(=O)c2ccc(-c3c4ccc5cc(O)ccc5c4oc4c3ccc3cc(=O)ccc34)c(C(=O)O)c2)c2ccccn2)cc1
10 | 145 nM | 6.93 | COc1ccc(CN(CCN(C)CCNC(=O)c2ccc(C(=O)O)c(-c3c4ccc(=O)cc-4oc4cc(O)ccc34)c2)c2ccccn2)cc1
11 | 22.4 nM | 7.61 | COc1ccc(CN(CCN(C)CCCCN)c2ccccn2)cc1
12 | 31.6 nM | 7.81 | COc1ccc(CN(CCN(C)CCCCNC(=O)c2ccc(C(=O)O)c(-c3c4ccc(=O)cc-4oc4cc(O)ccc34)c2)c2ccccn2)cc1
13 | 6.61 nM | 8.12 | CNCCN(Cc1ccc(OC)cc1)c1ccccn1 [2-[(2-METHYLAMINOETHYL)(P-METHOXYBENZYL)AMINO]PYRIDINE]
14 | 4.47 nM | 8.47 | COc1ccc(CN(CCN(C)CCCCNC(=O)c2ccc(-c3c4ccc(=O)cc-4oc4cc(O)ccc34)c(C(=O)O)c2)c2ccccn2)cc1
15 | 69.2 nM | 7.21 | COc1ccc(CN(CCN(C)CCNC(=O)c2ccc(-c3c4ccc(=O)cc-4oc4cc(O)ccc34)c(C(=O)O)c2)c2ccccn2)cc1
16 | 1.95 nM | 9.05 | COc1ccc(CN(CCN(C)CCCCCCNC(=O)CCCCCNc2ccc([N+](=O)[O-])c3nonc23)c2ccccn2)cc1
17 | 17.8 nM | 7.76 | COc1ccc(CN(CCN(C)CCCCCCNS(=O)(=O)c2cccc3c(N(C)C)cccc23)c2ccccn2)cc1
18 | 26.3 nM | 8.4 | COc1ccc(CN(CCN(C)CCCCCCNC(=O)c2ccc(C(=O)O)c(-c3c4ccc(=O)cc-4oc4cc(O)ccc34)c2)c2ccccn2)cc1
19 | 9.77 nM | 8.06 | COc1ccc(CN(CCN(C)CCCCCCCCN)c2ccccn2)cc1
20 | 33.1 nM | 7.54 | COc1ccc(CN(CCN(C)CCCCCCNC(=O)c2ccc(-c3c4ccc(=[N+](C)C)cc-4oc4cc(N(C)C)ccc34)c(C(=O)[O-])c2)c2ccccn2)cc1
